The values below are quoted from earlier work in patent US20220273015A1, “FORMULATIONS AND USES THEREOF” (priority 2021, published 2022).

For data set [1] the following is noted: for Stability: best preserved in an alcoholic tincture; for Properties: properties in words from a review of the primary literature (PMIDs in the cell), wrapped cell lines.
The test system of data set [2] is atypical/precancerous stem cells. The settings on record: used separately or together in one study.
[3] abbreviates: <1 ug daily, postoperative control of analgesia.

Entries after “also recorded” stand apart in the source; their conditions may differ.

In the case of `CC(C)=CCC[C@](C)(O)C1CC=C(C)CC1` (stereo partly drawn) [bisabolol], the Stability result in data set [1] was “are very unstable and are best preserved in an”.
Take `CCCCCCCC/C=C\CCCCCCCC(=O)O` [Oleic acid]: the “lipophilic penetration of skin cells” value in data set [1] ("may enhance", PMID 21871866, PMID 2367329) was “enhance lipophilic penetration of skin cells”. The “effect on the cell membrane allowing for drug permeability” value in data set [1] (PMID 2235880) is 21871866) and creates a temporary disruption. The “targeted drug delivery across the skin” value in data set [1] (PMID 2514720) was “facilitate targeted drug delivery across the skin”.
As to `COc1cc(/C=C/C(=O)CC(=O)/C=C/c2ccc(O)c(OC)c2)ccc1O` [curcumin], the “number of atypical/precancerous stem cells” value in data set [2] is on record as “reduced”.
For the molecule `CCCCCCCCCCCCCCCCCC(=O)O` [Stearic acid], in data set [1] (qualitative, PMID-cited), the “Metabolic and cardiovascular effects (lipids, blood pressure, glucose, clotting)” value was 10945745) and can increase the “good”; the “Wound healing / skin repair and skin health” value is “a saturated fatty acid beneficial to skin; also recorded: important in wound healing of burns (PMID”.
In the case of `CCCCC/C=C\C/C=C\CCCCCCCC(=O)O` [Linoleic acid], the “Wound healing / skin repair and skin health” value in data set [1] (qualitative, PMID-cited) was “shown to lighten UV-induced”.
Regarding `CC(C)=CCC/C(C)=C/CC/C(C)=C/CC/C(C)=C/CC/C(C)=C/CC/C(C)=C/CC/C(C)=C/CC1=C(C)C(=O)c2ccccc2C1=O` [MK7], the bone mineral density result in data set [1] (by facilitating signaling cascades which improve translocation of calcium from the serum into the bony matrix, PMID 32244313) was “other vitamin K homologs. MK7 increases”.
Consider `O=C1CC[C@@]2(O)[C@H]3Cc4ccc(O)c5c4[C@@]2(CCN3CC2CC2)[C@H]1O5` [VLDN], for which the “tolerability of opioid-weaning methadone taper” value in data set [1] (<1 ug X <0.5 mg daily) is listed as “VLDN: boosting tolerability of opioid-weaning”.
In the case of `CCCCCCCC/C=C\CCCCCCCC(=O)O` [Oleic acid (OA)], the Safety / toxicity result in data set [1] (qualitative) is “lead to heart failure (PMID 28391879) though”. The “Skin penetration / delivery of ingredients across skin and membranes” value in data set [1] (qualitative, PMID-cited) was “Oleic acid (OA) enhances lipophilic penetration”.
As to `COc1cc(CCC(C)=O)ccc1O` [zingerone], the diuretic effect entry in data set [1] (observed only at a dose of 30 mg/kg in normal mice, PMID 20606379) is reported as “Oil, zingerone exhibited a mild diuretic effect”.
For `O=C(O)CCCCC1CCSS1` (stereo not drawn) [Alpha-Lipoic Acid], the “blood flow to damaged nerves, nerve conduction velocity, and other measures of nerve function” value in data set [1] (PMID 25381809) is given as “microcirculation (PMID 160261130), improves”. In data set [1] (PMID 160261130), the diabetic polyneuropathy result is recorded as “improving”; the microcirculation result is “oxidative stress, aging, cancer, improves”; the “oxidative stress, aging, cancer” value is reported as “reducing”. For the same molecule, in data set [1] (such as those found in the myelin sheath of neurons), the “antioxidant protection of lipids” value was “Antioxidant which specifically protects lipids”.
Turning to `O=c1c(O)c(-c2ccc(O)c(O)c2)oc2cc(O)cc(O)c12` [Quercetin], the “Anti-cancer / cytotoxic / antitumor properties” value in data set [1] (qualitative, PMID-cited) is reported as “antitumor effects PMID 31880372) the ability”.
In the case of `CCc1ccc(C)c2ccc(C)c-2c1` [chamazulene], the Stability result in data set [1] was “are very unstable and are best preserved in an”.
Consider `O=c1cc(-c2ccc(O)cc2)oc2cc(O)cc(O)c12` [Apigenin], for which the “Anti-cancer / cytotoxic / antitumor properties” value in data set [1] (qualitative, PMID-cited) is given as “exerts an antitumor effect in preclinical models”.
Consider `C=C1/C(=C\C=C2/CCC[C@]3(C)[C@@H]([C@H](C)/C=C/[C@@H](O)C4CC4)CC[C@@H]23)C[C@@H](O)C[C@@H]1O` [calcipotriene], for which the chronic plaque psoriasis result in data set [1] (topical application, PMID 10753146) is on record as “topical application of calcipotriene improves”.
`CCCCCCCCCCCCCCCC(=O)O` [Palmitic Acid]: the “Wound healing / skin repair and skin health” value in data set [1] (qualitative, PMID-cited) is “Palmitic Acid is a saturated fat essential to skin”.
For `O=C1CC[C@@]2(O)[C@H]3Cc4ccc(O)c5c4[C@@]2(CCN3CC2CC2)[C@H]1O5` [ULDN], in data set [1] (setting [3]), the “need for total amount of opioids following surgery” value is listed as “(reduces the need for total amount of opioids”; the “side-effects of opioid-related treatment” value is “following surgery and ameliorating side-effects”.
In the case of `C=C(C)[C@H]1CC=C(C)CC1` [D-limonene], the “Antimicrobial, antiparasitic, insecticidal / insect repellent properties” value in data set [1] (qualitative, PMID-cited) was “a result. D-limonene has antimicrobial”. For the same molecule, the “Effects in animal models” value in data set [1] (qualitative, rodent/animal models, PMID-cited) was “more capable. D-limonene has a mild diuretic”.
With `CC(=O)N[C@@H](CS)C(=O)O` [N-Acetyl Cysteine (NAC)], the Properties entry in data set [1] is “completely blocks Reactive Oxygen Species”.
As for `O=C(O)c1cc(O)c(O)c(O)c1` [Gallic Acid], in data set [1] (PMID 30657034), the “antioxidant, anti-inflammatory, anti-microbial, anti-cancer activities” value is given as “Powerful antioxidant, anti-inflammatory, anti-”. Also, the “preventing and treating acne” value in data set [1] (PMID 32390309, PMID 30617549) is 23501608). Useful in preventing and treating. In addition, the “inhibitory properties against cancer” value in data set [1] (in vitro and in vivo, PMID 23501608) is on record as “Plant polyphenol with strong inhibitory”. The “NFKB, Akt, COX, ribonucleotide reductase and GSH pathways” value in data set [1] (mechanism of anti-cancer effect, PMID 23501608) is recorded as “(PMID 23501608) by inhibition of NFKB, Akt,”. In addition, in data set [1] (to prevent carcinogenesis, PMID 23501608), the ATM kinase signaling entry is “pathways; and also activates ATM kinase”.
With `CCCCC/C=C\C/C=C\CCCCCCCC(=O)O` [linoleic acid], the Safety / toxicity result in data set [1] (qualitative) is reported as “in high quantities is associated with higher rates”. The “Wound healing / skin repair and skin health” value in data set [1] (qualitative, PMID-cited) is listed as “polyunsaturated fat that improves skin barrier”.
For the molecule Vitamin E, the Properties entry in data set [1] is recorded as “skin barrier stabilizing properties (PMID”.
